Results taken from patent publication EP4050002A1, “ANTI-PROLIFERATIVE AGENTS” (First Health Pharmaceuticals B.V., priority 2021, dated 2022).

Assays:
Plasma stability = type: in vitro ADME, CD1 mice; settings: Mouse plasma
Experimental: Plasma previously separated from whole blood in EDTA-treated tubes and frozen; blood samples obtained from healthy volunteers, Sprague Dawley rats and CD1 mice, was thawed at room temperature and centrifuged at 1400x RCF 4°C, for 15 minutes. Approximately 90% of the clear supernatant fraction was transferred to a separate tube and was used for the assay.
Stocks (1 mM and 25 µM) of test compound were prepared in acetonitrile:water (50:50 v/v). Plasma samples were heat inactivated at 54°C. 3 µl of 25 µM test compound were added to 72 µl of heat inactivated plasma. A 50 µL aliquot of the mixture was taken and crashed with 200 µl of acetonitrile containing Telmisartan 100 ng/ml as internal standard and was further processed along with other time points: 10, 30 60 and 120 minutes.
Final working stock of 1 µM was prepared by diluting 12 µl of 25 µM stock in 288 µl of plasma. The obtained solution (300 µl) of plasma containing the test compound was incubated for […] at 37°C in shaker water bath with gentle shaking. 50 µl aliquot of sample at 10, 30, 60 and 120 min was precipitated immediately with 200 µl of acetonitrile containing internal standard and centrifuged at 4000x RCF, 4°C for 20 minutes. 150 µl of supernatant was diluted with 150 µl of water and analyzed by LC-MS/MS.
The % remaining of the test substance was calculated as: (Peak Area ratio at time (min))/(Peak Area Ratio at 0 min) ^∗ 100
The API400 MS and Agilent 1260 Infinity LC were used. Mobile Phase included 10mM Ammonium acetate with 0.1% formic acid in MilliQ water, and Methanol. The column was Phenomenex, KINETIC EVO C18 100A 5u 50^∗4.6 mm, 10 µl injection volume.

DDX3X = DDX3X (Homo sapiens, UniProt O00571); test: Helicase assay (unwinding of 18/36mer dsRNA); type: biochemical; set-up: host or cells: 293T cells (transient transfection, anti-HA immunoprecipitation, protein kept on beads); settings: 50, 250 and 500 µM, in presence of ATP
Experimental: The DDX3X protein was obtained by immunoprecipitation from 293T cells (3x10^5) were seeded in 6-well plates and, after 24h, transfected with 1 µg of HA-DDX3 (Addgene plasmid # 44975) by using the Lipofectamine reagent (Thermo Fischer Scientific). After 36 h, cells were lysed in NP-40 Lysis Buffer (20 mM HEPES pH=7.5, 10 mM EGTA pH=8, 40 mM β-glycerolphosphate, 1% NP40, 2.5 mM MgCl2, 2 mM Orthovanadate, 2 mM NaF, 1 mM DTT, and 1X protease inhibitors mixture) and 2 mg of proteins were immunoprecipitated with anti-HA antibodies (Covance) in NP40 lysis buffer. Immunoprecipitated samples were washed twice with lysis buffer and one time in helicase reaction buffer (50 mM Tris HCl pH=8, 1 mM DTT, 5% glycerol, 10 mM MgCl2). Beads were then resuspended in 100 µl in helicase reaction buffer. […]
Ultimately, reactions were performed in a final volume 100 µl of helicase reaction buffer plus ATP 4 mM, 30 µl of beads used to immunoprecipitate HA-DDX3X, 20 nM of 18/36mer dsRNA and 100 nM of competitor at 37°C for 1 hour and stopped by adding 10 µl of a stopping solution (EDTA 60 mM pH=8, 40% glycerol, 0.6% SDS, 1% Orange G). […] Quantification of the ssRNA was performed by the ImageJ software (version 1.53, NIH). […]

MCF10a = test: Cytotoxicity in non-tumor cells, cell count method; type: cell-based, human
Experimental: The non-specific toxicity of the compounds is evaluated in non-tumor immortalized cells with cell count and / or MTS methods, and in primary Peripheral Blood Mononuclear Cells (PBMC) with the ATP-based method.
Cells were seeded at 3 to 5 x 10^4 cells/well density depending on cell lines and maintained at 37°C in 5% CO2. After 24 hours cells were treated with ascending concentrations of the investigational compounds and the reference (5-fluoro-Uracyl) in a range from 0 to 100 µM. Compounds were dissolved in DMSO which final concentration in each well was 0.5% v:v. After 72 h of incubation with compounds, the cells were detached with trypsin and re-suspended in 1 ml of complete medium; the cell number was evaluated using a Z2 Coulter Counter ("cell count method") (Attallah and Johnson, A simple highly sensitive methods for the determination of cell viability using an electronic particle analyzer, Coulter counter J. Immunol. Methods. 1981, 41, 155; Leonardi et al., Activated kinase screening identifies the IKBKE oncogene as a positive regulator of autophagy. Autophagy, 2019, 15, 312). Alternatively, after the 72 hours of incubation with compounds, the MTS solution (CellTiter 96® AQueous One Solution Cell Proliferation Assay) is added to each well and absorbance at 490 nm wavelength is read after 2 hours of incubation ("MTS method"). […]

DDX3X, sequence (O00571 whole entry): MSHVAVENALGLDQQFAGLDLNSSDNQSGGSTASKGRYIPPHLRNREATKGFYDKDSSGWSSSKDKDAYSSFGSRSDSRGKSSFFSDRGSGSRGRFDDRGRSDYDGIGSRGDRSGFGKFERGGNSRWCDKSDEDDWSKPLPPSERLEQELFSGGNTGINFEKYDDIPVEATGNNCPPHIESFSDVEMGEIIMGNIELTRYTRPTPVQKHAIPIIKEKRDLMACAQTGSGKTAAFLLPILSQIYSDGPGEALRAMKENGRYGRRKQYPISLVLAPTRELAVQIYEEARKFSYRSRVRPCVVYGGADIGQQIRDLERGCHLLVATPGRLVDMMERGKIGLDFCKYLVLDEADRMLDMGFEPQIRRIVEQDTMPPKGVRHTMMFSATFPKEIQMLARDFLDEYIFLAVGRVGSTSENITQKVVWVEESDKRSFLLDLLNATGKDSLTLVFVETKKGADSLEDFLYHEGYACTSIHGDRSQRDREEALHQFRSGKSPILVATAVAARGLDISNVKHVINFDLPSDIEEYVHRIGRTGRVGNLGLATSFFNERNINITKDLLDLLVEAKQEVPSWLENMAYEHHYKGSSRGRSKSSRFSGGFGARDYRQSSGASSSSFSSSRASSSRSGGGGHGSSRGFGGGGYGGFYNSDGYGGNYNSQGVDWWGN

CCCCc1cn(-c2ccc(-c3nnc(-c4ccccc4C(F)(F)F)o3)cc2)nn1 [Compound 5]
% Remaining ± SD (Plasma stability; 0 minutes): 100.0 ± 1.8%
% Remaining ± SD (Plasma stability; 10 minutes): 117.2 ± 8.6%
% Remaining ± SD (Plasma stability; 30 minutes): 111.1 ± 0.3%
% Remaining ± SD (Plasma stability; 60 minutes): 108.2 ± 4.8%
% Remaining ± SD (Plasma stability; 120 minutes): 123.2 ± 26.5%
inhibitory effect on DDX3X helicase activity (DDX3X): inhibitory effect on DDX3X helicase activity
IC50 (MCF10a; Homo sapiens, MCF-10A, MCF10a, 72 hours of incubation, cell count method): 440 µM
toxicity (MCF10a; non tumor cell lines (Table 17)): above 100 µM
